Measured values taken from patent US5571788A, “Stable calcitonin pharmaceutical compositions” (Ciba-Geigy Corporation, priority 1994, dated 1996).

Experiments:
[1] = Ability of an acid to produce a stable hCT solution (stored 24 hours at 25° C., solution remains clear); assay type: physicochemical; conditions: aqueous hCT solution with the acid, no salt or buffer
[2] = Long-time hCT stability of aqueous solutions (solution remains clear, free of fibrils); conditions: for time solution is stable: Example 1 repeated (5 mg/ml hCT) with acetic acid replaced by the named acid
[3] = Absorption spectra and HPLC of stored hCT solutions; assay type: physicochemical; conditions: hCT stored in aqueous solutions of Example 1
[4] = Extrapolated time of fibrillation (ln/ln plot of fibrillation time against hCT concentration); assay type: physicochemical; conditions: 5-9 mg/ml hCT in 0.001% acetic acid, 4° C.; ln/ln plot from solutions up to 100 mg/ml hCT
Method: The stability of the solution is dependent on the concentration. We have found a linear correlation between the natural logarithm of fibrillation time and the natural logarithm of hCT concentration at a given temperature. From measurements on hCT solutions with concentrations up to 100 mg/ml hCT and using the 1n/1n plot, stability of more than 5 years at 4° C. is predicted for solutions with 5-9 mg/ml hCT in 0.001% acetic acid.
Solutions of hCT are made using different concentrations of methyl cellulose (MC) and hydroxypropyl methyl cellulose (HPMC) with and without 0.01% benzethonium chloride (BTC), in one case also with 0.001% acetic acid (AA) and in one case using 0.5% dextran (D). The extrapolated time of fibrillation in years is given for hCT concentration of 3.3 mg/ml and 6.6 mg/ml.

[5] = SUNTEST accelerated light exposure, stability against fibril formation; assay type: physicochemical; conditions: Example 3 solutions with 0.5% hydroxypropylmethylcellulose; after 24 hours at 47° C. in SUNTEST machine
[6] = Chemical stability tests (Roger's test); assay type: physicochemical; conditions: 3.3 mg/ml hCT, 0.5% methyl cellulose, 0.02% benzethonium chloride, 0.001% acetic acid; in 5 years, storage at 10° C.
Method: A solution of hCT is made containing 3.3 mg/ml hCT, 0.5% methyl cellulose, 0.02% benzethonium chloride and 0.001% acetic acid. Chemical stability tests (Roger's test) predicted only 0.02% chemical decomposition of the hCT in 5 years for storage at 10° C.

acid forms stable hCT solution [1]	time solution is stable [2]	Molecule	further results
do not form stable solutions		N[C@H](CCC(=O)O)C(=O)O [D-glutamic acid]	
	over 4 days	N[C@@H](CCC(=O)O)C(=O)O [L-glutamic acid]	
form stable solutions		CC(=O)O [acetic acid]	stabilising conditions for hCT solution ([2]; acid concentration 0.001%): best case
form stable solutions	over 4 days	O=C(O)CCCCC(=O)O [adipic acid]	
form stable solutions	over 4 days	O=C1O[C@H]([C@@H](O)CO)C(O)=C1O [ascorbic acid]	
do not form stable solutions		N[C@@H](CC(=O)O)C(=O)O [aspartic acid]	
form stable solutions	over 4 days	O=C(O)CC(O)(CC(=O)O)C(=O)O [citric acid]	
form stable solutions		O=C(O)CN(CCN(CC(=O)O)CC(=O)O)CC(=O)O [ethylene - diamine tetraacetic acid]	
do not form stable solutions		O=C(O)/C=C\C(=O)O [maleic acid]	
form stable solutions	over 4 days	O=C(O)CC(=O)O [malonic acid]	
	over 4 days	O=C(O)CCC(=O)O [succinic acid]	
		human calcitonin [hCT]	change in hCT properties (absorption spectra and HPLC) [3]: no change in hCT properties; predicted stability of hCT solution [4]: more than 5 years; stability against fibril formation under accelerated light exposure [5]: stable against fibril formulation; predicted chemical decomposition of the hCT [6]: 0.02%; time solutions are stable ([2]; Example 3: Example 1 solutions (5 mg/ml hCT, acetic acid) plus 0.5% hydroxypropylmethylcellulose, 4° C., 22° C. and 37° C., in the dark or in daylight): more than 3.5 months

Molecule	acid forms stable hCT solution [1]	time solution is stable [2]	further results
O=C(O)C(O)C(O)C(=O)O (racemic) [DL-tartaric acid]	form stable solutions	over 4 days	
O=C(O)C(O)C(O)C(=O)O [L-α-tartaric acid]	form stable solutions	over 4 days	
O=CO [formic acid]	form stable solutions	over 4 days	
O=C(O)[C@H](O)[C@@H](O)[C@H](O)[C@H](O)CO [gluconic acid]	do not form stable solutions		
O=C(O)CCCC(=O)O [glutaric acid]	form stable solutions	over 4 days	
Cl [hydrochloric acid]	form stable solutions	over 4 days	
Oc1ccccc1 [phenol]	form stable solutions		
O=S(=O)(O)O [sulphuric acid]	do not form stable solutions		
